Measurements from paper PMC10674657, “Quinazolin-4-one/3-cyanopyridin-2-one Hybrids as Dual Inhibitors of EGFR and BRAF^V600E: Design, Synthesis, and Antiproliferative Activity” (Pharmaceuticals, 2023).

Tests used:
[1] = Cell viability (cytotoxicity) MTT assay in non-tumorigenic MCF-10A cells; assay type: cell-based, human; conditions: human, MCF-10A mammary epithelial cells
[2] = tested on: A-549 human lung carcinoma cell line; experiment: Antiproliferative assay, A-549; conditions: Homo sapiens, A549, read-out: Antiproliferative Activity IC50 ± SEM, A-549
Procedure: (§1) For a rigorous assessment, the widely accepted MTT assay [63, 64] was employed. Using Doxorubicin, a well-established drug, as the reference standard ensures a benchmark for the synthesized compounds, allowing a contextual understanding of their efficacy.
(§2) The MTT assay [63, 64] was employed for this assessment, with Doxorubicin as the reference drug.
(§3) 24h followed by the addition of synthesized compounds (in 200 μL medium to yield a final concentration of 0.1% (v/v) dimethyl sulfoxide) into individual wells of the plates. Four wells were designated to a single compound. The plates were allowed to incubate at 37°C for 96 h. After wards, the medium was aspirated and 3-[4,5-dimethylthiazol-2-yl]-2,5-diphenyltetrazolium bromide (MTT) (0.4 mg/mL) in medium was added to each well and subsequently incubated for 3 h. The medium was aspirated and 150 μL dimethyl sulfoxide (DMSO) was added to each well.
(§4) The plates were vortexed followed by the measurement of absorbance at 540 nm on a microplate

[3] = tested on: MCF-7 human breast adenocarcinoma cell line; experiment: Antiproliferative assay, MCF-7; conditions: Homo sapiens, MCF7, read-out: Antiproliferative Activity IC50 ± SEM, MCF-7
Procedure: as §1, §2, §3, §4

[4] = tested on: HT-29 human colon cancer cell line; experiment: Antiproliferative assay, HT-29; conditions: Homo sapiens, HT-29, read-out: Antiproliferative Activity IC50 ± SEM, HT-29
Procedure: as §1, §2, §3, §4

[5] = tested on: Panc-1 human pancreatic cancer cell line; experiment: Antiproliferative assay, Panc-1; conditions: Homo sapiens, PANC-1, read-out: Antiproliferative Activity IC50 ± SEM, Panc-1
Procedure: as §1, §2, §3, §4

[6] = tested on: four cancer cell lines (A-549, MCF-7, Panc-1, HT-29); experiment: Antiproliferative assay, average over four cancer cell lines (GI50); conditions: Homo sapiens, read-out: Average IC50 (GI50)
Procedure: as §1, §2, §3, §4

Row | SMILES | viability at 4 days, 50 µM [1] [%] | IC50 [2] [µM] | IC50 [3] [µM] | IC50 [4] [µM] | IC50 [5] [µM] | IC50 [6] [µM]
1 | CCn1c(SCC(=O)Nc2ccc(-c3cc(-c4ccc(F)cc4)c(C#N)c(=O)[nH]3)cc2)nc2ccccc2c1=O [Compound 11, N-(4-(5-Cyano-4-(4-fluorophenyl)-6-oxo-1,6-dihydropyridin-2-yl)phenyl)-2-((3-ethyl-4-oxo-3,4-dihydroquinazolin-2-yl)thio)acetamide] | 91 | 3.7 ± 0.3 | 3.6 ± 0.3 | 4 ± 0.3 | 3.8 ± 0.3 | 3.8
2 | N#Cc1c(-c2ccc(F)cc2)cc(-c2ccc(NC(=O)CSc3nc4ccccc4c(=O)n3-c3ccccc3)cc2)[nH]c1=O [Compound 16, N-(4-(5-Cyano-4-(4-fluorophenyl)-6-oxo-1,6-dihydropyridin-2-yl)phenyl)-2-((4-oxo-3-phenyl-3,4-dihydroquinazolin-2-yl)thio)acetamide] | 89 | 4.8 ± 0.5 | 4.7 ± 0.4 | 5.1 ± 0.5 | 5.1 ± 0.5 | 4.9
3 | COc1cccc2c1C(=O)c1c(O)c3c(c(O)c1C2=O)C[C@@](O)(C(=O)CO)C[C@@H]3O[C@H]1C[C@H](N)[C@H](O)[C@H](C)O1 [Doxorubicin, reference compound] | – | 1.2 ± 0.1 | 0.9 ± 0.1 | 1 ± 0.1 | 1.4 ± 0.1 | 1.1
4 | COc1ccc(-c2cc(-c3ccc(NC(=O)CSc4nc5ccccc5c(=O)n4-c4ccccc4)cc3)[nH]c(=O)c2C#N)cc1 [Compound 13, N-(4-(5-Cyano-4-(4-methoxyphenyl)-6-oxo-1,6-dihydropyridin-2-yl)phenyl)-2-((4-oxo-3-phenyl-3,4-dihydroquinazolin-2-yl)thio)acetamide] | 87 | 3.2 ± 0.3 | 3.1 ± 0.3 | 3.5 ± 0.3 | 3.4 ± 0.3 | 3.3
5 | N#Cc1c(-c2ccc(Cl)cc2)cc(-c2ccc(NC(=O)CSc3nc4ccccc4c(=O)n3-c3ccccc3)cc2)[nH]c1=O [Compound 14, N-(4-(4-(4-Chlorophenyl)-5-cyano-6-oxo-1,6-dihydropyridin-2-yl)phenyl)-2-((4-oxo-3-phenyl-3,4-dihydroquinazolin-2-yl)thio)acetamide] | 89 | 4.1 ± 0.4 | 3.9 ± 0.4 | 4.2 ± 0.4 | 4.2 ± 0.4 | 4.1
6 | C=CCn1c(SCC(=O)Nc2ccc(-c3cc(-c4ccc(F)cc4)c(C#N)c(=O)[nH]3)cc2)nc2ccccc2c1=O [Compound 21, 2-((3-Allyl-4-oxo-3,4-dihydroquinazolin-2-yl)thio)-N-(4-(5-cyano-4-(4-fluorophenyl) -6-oxo-1,6-dihydropyridin-2-yl)phenyl)acetamide] | 87 | 2.1 ± 0.2 | 1.9 ± 0.1 | 2.2 ± 0.1 | 2.2 ± 0.2 | 2.1
7 | CCn1c(SCC(=O)Nc2ccc(-c3cc(-c4ccccc4)c(C#N)c(=O)[nH]3)cc2)nc2ccccc2c1=O [Compound 7, N-(4-(5-Cyano-6-oxo-4-phenyl-1,6-dihydropyridin-2-yl)phenyl)-2-((3-ethyl-4-oxo-3,4-dihydroquinazolin-2-yl)thio)acetamide] | 90 | 9.2 ± 0.8 | 9.1 ± 0.8 | 9.8 ± 0.9 | 9.3 ± 0.8 | 9.3
8 | CCn1c(SCC(=O)Nc2ccc(-c3cc(-c4ccc(Br)cc4)c(C#N)c(=O)[nH]3)cc2)nc2ccccc2c1=O [Compound 10, N-(4-(4-(4-Bromophenyl)-5-cyano-6-oxo-1,6-dihydropyridin-2-yl)phenyl)-2-((3-ethyl-4-oxo-3,4-dihydroquinazolin-2-yl)thio)acetamide] | 88 | 2.4 ± 0.2 | 2.2 ± 0.45 | 2.7 ± 0.2 | 2.6 ± 0.2 | 2.5
